Results on 1 molecule are retold here after patent US10100097B2, “GIP-GLP-1 dual agonist compounds and methods” (Zealand Pharma A/S, priority 2012, dated 2018).

Structures are written as SMILES. Numbered stars: 1 amine (or outer) side, 2 acyl side, 3 side chain; on linkers, the order of the positions; unused ones are H or OH. Square brackets hold non-standard residues; d marks the D form. Side chains are listed from the residue outwards. Peptide text beside a SMILES is read from it. * marks the point of attachment. γGlu = O=C(O)[C@H](CCC(=O)[*:2])N[*:1]; Palmitoyl = CCCCCCCCCCCCCCCC(=O)*; Aib = CC(C)(N)C(=O)O

One data set has as its system Male C57BL/6J mice. In words: IPGTT (Intraperitoneal Glucose Tolerance Test) in mice. The class given is in vivo. How it is done: IPGTT (Intraperitoneal Glucose Tolerance Test) in Mice
Male C57BL/6J mice (Charles River, Germany) were maintained on normal chow (Altromin 1324, Brogaarden A/S, Gentofte, Denmark) and domestic quality water with added citric acid to pH˜3.6. The animals were housed pair-wise in a light-, temperature-, and humidity-controlled room (12:12 h light-dark cycle, with lights on at 06.00-18.00 hr; 20-22° C.; 50-80% relative humidity). Mice were fasted for 5 hr before the IPGTT. Peptides and vehicle were administered subcutaneously before the intraperitoneal injection of glucose (t=0 min; 2 g/kg; 5 ml/kg). Tail vein blood was sampled at time t=0 (before glucose administration), 15, 30, 45, 60, 90, and 120 min for measurements of blood glucose.

The next data set has as its target T1, human GLP-1 R (Homo sapiens, UniProt P43220).
T1 construct: expressed in transfected cells
Description: Human GLP-1 receptor (GLP-1 R) activity assay, cAMP induction (AlphaScreen cAMP kit). In kind it is cell-based. As to conditions: HEK293 cells expressing the human GLP-1 R, 15 min at 37° C., average values of multiple determinations, read-out: GLP1 R (EC50 in nM). The method, boiled down:
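Stable HEK293 clones expressing human GIP R or GLP-1 R, grown 1 day, washed in Tyrode's buffer (10 mM HEPES, pH 7.4), then stimulated with peptide. Cells lysed and cAMP quantified by AlphaScreen competition with biotinylated cAMP, 1 h dark incubation at room temperature.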
A general note: Alpha assays give light when donor and acceptor beads are brought close together.

The next data set can be described thus: in vivo. As to conditions: C57BL/6J, mouse, plasma, sc, 200 nmol/kg.

T1 sequence (P43220 24-463): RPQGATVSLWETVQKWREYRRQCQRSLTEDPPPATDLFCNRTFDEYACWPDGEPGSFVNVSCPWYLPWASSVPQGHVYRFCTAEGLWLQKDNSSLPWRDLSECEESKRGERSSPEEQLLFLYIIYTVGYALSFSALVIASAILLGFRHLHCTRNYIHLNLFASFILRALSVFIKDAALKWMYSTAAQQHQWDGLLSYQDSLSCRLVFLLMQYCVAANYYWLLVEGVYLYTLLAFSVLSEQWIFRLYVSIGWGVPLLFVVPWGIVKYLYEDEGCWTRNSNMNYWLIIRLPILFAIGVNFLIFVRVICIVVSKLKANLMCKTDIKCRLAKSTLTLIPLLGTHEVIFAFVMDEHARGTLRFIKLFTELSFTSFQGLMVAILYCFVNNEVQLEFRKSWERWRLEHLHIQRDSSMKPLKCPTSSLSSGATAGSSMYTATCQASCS
Description for in vivo: C57BL/6J mice were given a single subcutaneous dose of 200 nmol/kg body weight of each peptide to be tested. Blood samples were drawn 0.5, 2, 4, 6, 8, 16, 24 and 36 hours post-dose by sublingual bleeding. At each time point, samples from two mice were taken, i.e. 16 mice per compound. The mice were euthanized immediately after blood sampling by cervical dislocation. Plasma samples were analyzed after solid phase extraction (SPE) by liquid chromatography mass spectrometry (LC-MS/MS).

Usually EC50 stands for the concentration that produces a half-maximal response. The half-life is the time in which the quantity being followed falls by half. A low value points to fast loss. `CCCCCCCCCCCCCCCC(=O)N[C@@H](CCC(=O)NCCCC[C@H](NC(=O)[C@H](CCCCN)NC(=O)[C@H](CC(=O)O)NC(=O)[C@H](CC(C)C)NC(=O)[C@H](Cc1ccc(O)cc1)NC(=O)[C@@H](NC(=O)[C@H](CO)NC(=O)[C@H](Cc1ccc(O)cc1)NC(=O)[C@H](CC(=O)O)NC(=O)[C@H](CO)NC(=O)[C@@H](NC(=O)[C@H](Cc1ccccc1)NC(=O)[C@@H](NC(=O)CNC(=O)[C@H](CCC(=O)O)NC(=O)C(C)(C)NC(=O)[C@@H](N)Cc1ccc(O)cc1)[C@@H](C)O)[C@@H](C)O)[C@@H](C)CC)C(=O)N[C@@H](C)C(=O)N[C@@H](CCC(N)=O)C(=O)N[C@@H](CCCNC(=N)N)C(=O)N[C@@H](C)C(=O)N[C@@H](Cc1ccccc1)C(=O)N[C@H](C(=O)N[C@@H](CCC(=O)O)C(=O)N[C@@H](Cc1c[nH]c2ccccc12)C(=O)N[C@@H](CC(C)C)C(=O)N[C@@H](CC(C)C)C(=O)N[C@@H](C)C(=O)N[C@@H](CCC(N)=O)C(=O)NCC(=O)N1CCC[C@H]1C(=O)N[C@@H](CO)C(=O)N[C@@H](CO)C(=O)NCC(=O)N[C@@H](C)C(=O)N1CCC[C@H]1C(=O)N1CCC[C@H]1C(=O)N1CCC[C@H]1C(=O)N[C@@H](CO)C(N)=O)C(C)C)C(=O)O` [Compound 33] (H-Y[Aib]EGTFTSDYSIYLDKK([γGlu-Palmitoyl])AQRAFVEWLLAQGPSSGAPPPS-NH2): the “Effect on glucose tolerance as compared to vehicle” value in the data set on Male C57BL/6J mice (glucose 2 g/kg i.p., peptides s.c., all time points, p<0.05 vs. vehicle) is given as “significantly improved glucose tolerance”. Also, the “Reduction in blood glucose compared with liraglutide” value with Male C57BL/6J mice (time t=60 min, p<0.05 vs. liraglutide) is reported as “statistically significant greater reduction”. At human GLP-1 R, the EC50 was determined as 0.031 nM. Further, in “in vivo”, the half-life was 3.7 h.
